Legend:
Test in all cases: cells
Parameters in all cases: JFCR39 human cancer cell line panel, antiproliferative dose response (optical density), GI50
MKN-A = system: MKN-A
Method: (§1) Initially, we evaluated new DDP analogues for their antiproliferative activities across the panel of 39 human cancer cell lines, JFCR39[50],[51]. […] Purified DDPs was dissolved in DMSO (Specially Prepared Reagent, Nuclease and Protease tested, NACALAI, 09659-14) to prepare 5 mM solutions. The Each DDP solution (5 mM) was used for antiproliferative effects on cancer cell lines (Supplementary Notes 23, 24, 25, 26), biological activity against Drosophila (Supplementary Note 27), anti-HIV assay (Supplementary Note 28) and screening of amyloid Ab42 aggregation inhibitors (Supplementary Notes 29).

MKN45 = details: Homo sapiens, MKN-45
Method: as §1

DMS114 = details: Homo sapiens, DMS-114
Method: as §1

HCT-116 = details: Homo sapiens, HCT-116
Method: as §1

HCC2998 = details: Homo sapiens, HCC 2998
Method: as §1

BSY-1 = details: BSY-1
Method: as §1

NCI-H226 = details: Homo sapiens, NCI-H226
Method: as §1

HBC-4 = details: HBC4
Method: as §1

SNB-78 = details: Homo sapiens, SNB-78
Method: as §1

SF-295 = details: Homo sapiens, SF-295
Method: as §1

A549 = details: Homo sapiens, A549
Method: as §1

SF-268 = details: Homo sapiens, SF-268
Method: as §1

MCF-7 = details: Homo sapiens, MCF7
Method: as §1

NCI-H23 = details: Homo sapiens, NCI-H23
Method: as §1

OVCAR-3 = details: Homo sapiens, OVCAR-3
Method: as §1

HBC-5 = details: HBC5
Method: as §1

NCI-H522 = details: Homo sapiens, NCI-H522
Method: as §1

HT-29 = details: Homo sapiens, HT-29
Method: as §1

SNB-75 = details: Homo sapiens, SNB-75
Method: as §1

DMS273 = details: Homo sapiens, DMS-273
Method: as §1

RXF-631L = details: RXF-631L
Method: as §1

SF-539 = details: Homo sapiens, SF-539
Method: as §1

MDA-MB-231 = details: Homo sapiens, MDA-MB-231
Method: as §1

U251 = details: Homo sapiens, U-251
Method: as §1

PC-3 = details: Homo sapiens, PC-3
Method: as §1

OVCAR-4 = details: Homo sapiens, OVCAR-4
Method: as §1

DU-145 = details: Homo sapiens, DU-145
Method: as §1

SMILES | GI50 (MKN-A) [nM] | GI50 (MKN45) [µM] | GI50 (DMS114) [nM] | GI50 (HCT-116) [nM] | GI50 (HCC2998) [µM] | GI50 (BSY-1) [µM] | GI50 (NCI-H226) [µM] | GI50 (HBC-4) [µM] | GI50 (SNB-78) [µM] | GI50 (SF-295) [nM] | GI50 (A549) [µM] | GI50 (SF-268) [µM] | GI50 (MCF-7) [nM] | GI50 (NCI-H23) [nM] | GI50 (OVCAR-3) [nM] | GI50 (HBC-5) [µM] | GI50 (NCI-H522) [nM] | GI50 (HT-29) [µM] | GI50 (SNB-75) [µM] | GI50 (DMS273) [nM] | further results
C=C1CCC2C3(C)CC(C=C(C)C)OC3CCC2(C)C1Cc1c(OC)oc(C)c(C)c1=O (stereo not drawn) [Compound 23] | 318 | 11.1 | 55.2 | 995 | 12 | 10.3 | 10.7 | 13.2 | 12.3 | 1120 | 10.4 | 8.62 | 1010 | 228 | 1470 | 10.7 | 721 | 10.3 | 13.3 | 265 | GI50 (RXF-631L): 10.2 µM; GI50 (SF-539): 5.57 µM; GI50 (MDA-MB-231): 11.9 µM; GI50 (U251): 13.2 µM; GI50 (PC-3): 10.9 µM; GI50 (OVCAR-4): 7.04 µM; GI50 (DU-145): 12.3 µM
C=C1CC[C@H]2[C@]3(C)C[C@H](C=C(C)C)O[C@H]3CC[C@]2(C)[C@@H]1Cc1c(OC)oc(C)c(C)c1=O [Compound 24] | 573 | 9.14 | 189 | 1300 | 12.7 | 9.59 | 10.6 | 13.4 | 12.9 | 2210 | 6.88 | 8.09 | 1530 | 668 | 2680 | 10.7 | 754 | 10.1 | 13.9 | 484 | GI50 (RXF-631L): 10.9 µM; GI50 (SF-539): 7.26 µM; GI50 (MDA-MB-231): 11.6 µM; GI50 (U251): 13.5 µM; GI50 (PC-3): 11.8 µM; GI50 (OVCAR-4): 6.49 µM; GI50 (DU-145): 12.2 µM
